The values that follow come from publication PMC11997999, “Uncovering α-Selectivity for Liver X Receptor Agonists for Lipotoxic Cancer Therapies” (Journal of Medicinal Chemistry, 2025).

The subject of one data set is Hep3B cells. The data set can be described thus: Oxidative stress in Hep3B cells (CellROX Green Reagent, FACS). It counts as cell-based, human. Conditions: 3 days, 3 μM LXR agonist + 1 μM sorafenib. The method, then: We previously described that our established lipotoxic therapy triggers oxidative stress and an ER stress response, which finally leads to apoptosis in tumor cells.[6]
The determination of oxidative stress levels was performed using CellROX Green Reagent from Thermo Fischer Scientific in Hep3B cells. Measurement of green fluorescence was performed using the FACS LSRFortessa cell analyzer (BD Bioscience, Flow Cytometry Core Facility Tuebingen) after 3 days of treatment. Data were collected using DIVA software (v9.0.1).

The next data set has as its system BNL CL.2 cells. The experiment in a line: Cell viability analysis in untransformed liver cells BNL CL.2 (CellTiter-Glo). Conditions: BNL CL.2, 5d, with 2 μM sorafenib. It counts as cell-based. The method, then: To further determine the therapeutic potential of compound 40, we analyzed the effect of a combinatorial lipotoxic therapy with this agonist in untransformed liver cells. We applied the well-established untransformed liver cell lines AML12 and BNL CL.2 and subjected them to treatment with 40 in combination with sorafenib.
For organoid treatment studies, digestion of organoids was performed using TrypLE Express (Gibco) supplemented with 100 μg/mL DNaseI and 10.5 μM Y-27632 dihydrochloride (Invitrogen) at 37 °C, and afterward, single-cells were plated in white 96 well plates (Sarstedt) in a mixture of 10% Matrigel (Growth Factor Reduced (GFR) Matrigel, Corning) in culture medium. Cell viability was determined after 5 days of treatment using the CellTiter-Glo 3D Cell Viability Assay Kit (Promega). Cell viability of Hep3B, AML12, and BNL CL.2 cells was determined after 5 days of treatment in white 96 well plates (Sarstedt) using the CellTiter-Glo 2.0 Cell Viability Assay Kit (Promega). AML12 and BNL CL.2 cells were also obtained from the American Type Culture Collection. The luminescence signal was measured using an […] M PLEX plate reader (Tecan) and the Tecan i-control software (v3.9.1). Sodium oleate (Selleckchem) was dissolved in methanol and added to cells at a final concentration of 200 μM.

Data set [1] deals with Akt1^Myr; Myc^OE HCC organoids. The experiment in a line: Cell viability analysis in HCC organoids (CellTiter-Glo 3D). It counts as cell-based, murine. Conditions: 5d, with 4 μM sorafenib. An excerpt: Finally, we analyzed the efficacy of compound 40 in preclinical treatment studies in three-dimensional liver cancer organoid cultures. HCC organoids driven by myristoylated Akt1 and overexpressed Myc (Akt1^Myr; Myc^OE) were isolated from murine liver tumors and subjected to monotherapies of sorafenib, compound 40, or a combination thereof (Figure 7C). The therapeutic outcome was side-by-side compared with combinatorial therapies comprising the established agonists T0901317 (1) and GW3965 (2). […] Isolation of murine HCC organoid cultures was performed from liver tumors derived from C57BL/6 mice using established protocols.[26] The animal experiments were approved by committees of the regional authority of the state of Baden-Wuerttemberg (Regierungspraesidium Tuebingen, authorization number M15/18G) as appropriate. After digestion, the organoids were embedded in 100% Growth Factor Reduced (GFR) MatrigelTM (Corning) and cultured at 37 °C and 5% CO2 in HCC organoid medium supplemented with nicotinamide (10 mM), N-acetylcystein (1.25 mM), human HGF (50 ng/mL), human FGF-10 (100 ng/mL), human R-Spondin (0.5 μg/mL), forskolin (10 μM), A83- 01 (0.5 μM), murine Noggin (50 ng/mL), gastrin I (10 nM), human BMP-7 (25 ng/mL), human Wnt3a (100 ng/mL), B27 supplement (1×) and N2 supplement (1×). The cultures were split by mechanical dissociation every 3 to 4 days. […] Cell viability was determined after 5 days of treatment using the CellTiter-Glo 3D Cell Viability Assay Kit (Promega). Cell viability of Hep3B, AML12, and BNL CL.2 cells was determined after 5 days of treatment in white 96 well plates (Sarstedt) using the CellTiter-Glo 2.0 Cell Viability Assay Kit (Promega). […] The luminescence signal was measured using an […] M PLEX plate reader (Tecan) and the Tecan i-control software (v3.9.1). […]
For orientation: ATP-based viability assays read luminescence as a measure of living cells.

The target of the next data set is T1, LXRβ LBD (GST) (Homo sapiens, UniProt P55055).
T1 construct: 5 nM LXRα LBD (GST); 10 nM LXRβ LBD (GST); purchased ThermoFisher Scientific PV4658
T1 sequence (P55055 222-460 limits assumed): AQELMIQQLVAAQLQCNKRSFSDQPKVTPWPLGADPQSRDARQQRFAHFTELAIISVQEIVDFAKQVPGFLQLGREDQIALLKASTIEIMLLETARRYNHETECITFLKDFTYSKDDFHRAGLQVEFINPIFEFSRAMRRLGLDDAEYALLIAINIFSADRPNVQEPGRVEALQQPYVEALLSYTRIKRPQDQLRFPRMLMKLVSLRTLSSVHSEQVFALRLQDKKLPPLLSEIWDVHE
The experiment in a line: Time-resolved LXR FRET assay (LanthaScreen TR-FRET LXRβ assay kit). It counts as biochemical. The note with it: 10 nM LXRβ LBD (GST), read after 6 h; R^2 of fit given; read-out: TR-FRET activity (EC50) LXRβ. (In general: Time-resolved FRET reads energy transfer from a long-lived donor to a nearby acceptor.)

As for `O=C1C(Nc2ccc(N3CCCCC3)cc2)=C(c2ccccc2)C(=O)N1Cc1ccccc1` [Compound 40, 1-Benzyl-3-phenyl-4-((4-(piperidin-1-yl)phenyl)amino)-1H-pyrrole-2,5-dione], in the data set on Hep3B cells, the “oxidative stress induction in combination with sorafenib” value is “more efficient in inducing oxidative stress than GW3965 (2), GSK3987 (3), and AZ876 (4)”. Moreover, the “sensitivity of untransformed liver cells to combination therapy (cell viability)” value with BNL CL.2 cells is “only very low sensitivity”. The “therapeutic efficacy (cell viability) in combination with sorafenib” value in data set [1] is “further improved therapeutic efficacy”. For the same molecule, the EC50 on LXRβ LBD (GST) was determined as 266 nM.

By EC50 is commonly meant the midpoint of the concentration-response curve.
